Test results reported in US20010008770A1, “MICRO-ORGANISM WHICH CAN DESULPHURISE BENZOTHIOPHENES” (priority 1996, published 2001).
“Also recorded” adds a separate entry of the source.

Experiments:
[1] = system: Rhodococcus sp. strain 213E; experiment: Growth studies of strain 213E in mineral salts medium with a sole sulphur source (biomass OD600, Gibbs phenol assay, GC-MS of metabolites); conditions: for Mean Generation time / Biomass at end log phase: strain 213E in FruRM
Method: (§1) The final pH was 7.2 without titration. In some experiments another sugar replaced glucose as the carbon-source.
(§2) For cultures of strain IGTS8, DST (200 μM, added from a stock solution, 40 mM in acetone) was included.
(§3) Growth studies SRM (50 ml in a 100 ml Ehrlenmyer flask) was inoculated with a loopful of cells from a plate and incubated in an orbital shaker (250 rpm, 30° C.). At intervals as appropriate, an 3 ml sample was removed aseptically for measurement of biomass (as optical density at 600 mm, O.D.600) and for phenol production using the Gibbs Assay. The Gibbs Assay was carried out as follows: 1.5 ml of the sample was aliquoted into a Eppendorf tube, centrifuged (12000 rpm, 5 min) to remove the cells and frozen (−20° C.) until the end of the experiment. The samples were then thawed out and 1.0 ml of the supernatant was transferred to a 1 ml disposable spectrophotometer cuvette. 10 μl Gibbs reagent (10 mM in acetone) was then added to each cuvette. A blank solution (SRM +10 μg Gibbs reagent) was also prepared. The set was incubated overnight at 30° C., for full colour development, and the absorbance at 610 nm was measured.
(§4) Cells were removed by centrifugation at 2800×g (3000 rpm) for 30 mins and the supernatant was titrated to pH 1 with 50% HCl and extracted three times with equal volumes of ethyl acetate. The ethyl acetate extracts ware pooled and dried by stirring for 1 h with anhydrous MgSO4 (100 g/l). The ethyl acetate was removed by rotory evaporation and the solids re-dissolved in 3.0 ml ethyl acetate.
(§5) The GC was fitted with a Hewlett Packard capillary column HP-5MS, of length 30 m. The carrier gas was helium. Run conditions were as follows: Start temperature 40° C. held for 2 min, followed by 10° C./min ramp rate to final temperature 240° C. Total run time, 24 min. The mass scan range was 40 to 550 amu.
(§6) The flasks were incubated in an orbital shaker (120 rpm, 30° C.). At intervals 3 ml was withdrawn from each culture under sterile conditions for measurement of biomass and phenol concentration, as described in methods. The cells were also Gram stained and examined under the microscope.

[2] = system: Rhodococcus sp. strain 213F; experiment: Growth studies of strain 213F in mineral salts medium with a sole sulphur source (biomass OD600, Gibbs phenol assay, GC-MS of metabolites); conditions: for Mean Generation time / Biomass at end log phase: strain 213F in FruRM; for Mean Generation time / mean generation time (MGT) / Biomass at end log phase: sulphur source 200 μM; for mean generation time (MGT): strain 213F, (FruRM)
Method: as §1, §3
The flasks were incubated in an orbital shaker (120 rpm, 30° C.). At intervals 3 ml was withdrawn from each culture under sterile conditions for measurement of biomass and phenol concentration, as described in methods.

[3] = system: Rhodococcus sp. strain IGTS8; experiment: Growth studies of strain IGTS8 in mineral salts medium with a sole sulphur source (biomass OD600, Gibbs phenol assay, GC-MS of metabolites); conditions: for mean generation time (MGT): strain IGTS8, as stated in the text (FruRM)
Method: as §1, §2, §3, §4, §5, §6

[4] = system: Rhodococcus sp. strain IGTS8; conditions: background statement; cited from earlier work
strain ECRD-1 = conditions: Lee, Senius and Grossman, 1996; cited from earlier work
strain N1-36 = conditions: Wang and Krawiec, 1996a; cited from earlier work
[5] = strain IGTS8 in SRM, sulphur source 200 μM

SMILES | Mean Generation time ([1]; sulphur source 200 μM) | Mean Generation time [2] | mean generation time (MGT) [2] | mean generation time (MGT) ([3]; sulphur source 200 μM) | Mean Generation time [3, 5] | desulphurisation of compound by IGTS8 [4] | desulphurisation of compound by strain 213E [1] | desulphurisation of compound by strain 213F [2] | Biomass at end log phase [2] | desulphurisation of compound by strain IGTS8 [3] | also measured
O=S(=O)([O-])[O-].[Na+].[Na+] [sulphate, Sodium sulphate] | 4.4 h | 3.6 h | around 4 h | around 4 h | 3.2 h |  |  |  |  |  | mean generation time (MGT) ([1]; strain 213E, sulphur source 200 μM): around 4 h
c1ccc2c(c1)sc1ccccc12 [DBT, dibenzothiophene] |  | 12.4 h | 12 h | around 8 h | 7.0 h | desulphurises | unable to desulphurise; also recorded: does not desulphurise | able to desulphurise; also recorded: appears to desulphurise | 5.4 OD600 | desulphurised | growth with compound as sole sulphur source ([1]; strain 213E, compound substituted for BTH, FruRM, over a period of 100 h): no significant growth; Biomass at end log phase ([3]; strain IGTS8 in SRM, sulphur source 200 μM, 1 cm pathlength): 6.0 OD600
c1ccsc1 [thiophene] |  |  |  |  |  | not |  |  |  |  | 
c1ccc2sccc2c1 [BTH, benzothiophene] | 9.0 h | 8.0 h | around 8 h |  |  | not | efficiently desulphurise | efficiently desulphurise; also recorded: able to desulphurise; also recorded: appears to desulphurise | 6.0 OD600 | unable to desulphurise; also recorded: does not desulplurise | desulphurisation activity of strain ECRD-1 (strain ECRD-1): negligible; desulphurisation activity of strain N1-36 (strain N1-36): negligible; toxicity to strain 213E (effect on MGT) ([1]; concentration range <200 μM (growth curves 50-200 μM)): not toxic; Biomass at end log phase ([1]; sulphur source 50 μM): 2.3 OD600; Mean Generation time ([1]; sulphur source 50 μM): 8.0 h; Biomass at end log phase ([1]; sulphur source 100 μM): 3.0 OD600; Mean Generation time ([1]; sulphur source 100 μM): 8.6 h; Biomass at end log phase ([1]; sulphur source 200 μM): 4.2 OD600; growth with compound as sole sulphur source ([3]; strain IGTS8 in SRM, over a period of 100 h): no significant growth
